Measurements as given in paper PMC7339578, “Multiple circulating alkaloids and saponins from intravenous Kang-Ai injection inhibit human cytochrome P450 and UDP-glucuronosyltransferase isozymes: potential drug–drug interactions” (Chinese Medicine, 2020).
Where two headings read alike, the source gives them in different places.

Legend:
[1] = Protein binding assay (equilibrium dialysis); assay type: in vitro ADME, rat
Summary of the method: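 Rat plasma binding was measured by equilibrium dialysis (12–14 kDa cutoff membrane), equilibrated 24 h at 37 °C and 55 rpm. Alkaloids were tested at 2 μmol/L and saponins at 4 μmol/L. Unbound fraction = dialysate concentration/post-dialysis plasma concentration × 100%.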

CYP2B6 = biological target: T1, CYP2B6 (Homo sapiens, UniProt P20813); test: Inhibition of recombinant CYP2B6 (probe bupropion); assay type: in vitro ADME; settings: mean ± SD of triplicate, unit not given (IC50 classes in μM)
T1 sequence (P20813 1-491): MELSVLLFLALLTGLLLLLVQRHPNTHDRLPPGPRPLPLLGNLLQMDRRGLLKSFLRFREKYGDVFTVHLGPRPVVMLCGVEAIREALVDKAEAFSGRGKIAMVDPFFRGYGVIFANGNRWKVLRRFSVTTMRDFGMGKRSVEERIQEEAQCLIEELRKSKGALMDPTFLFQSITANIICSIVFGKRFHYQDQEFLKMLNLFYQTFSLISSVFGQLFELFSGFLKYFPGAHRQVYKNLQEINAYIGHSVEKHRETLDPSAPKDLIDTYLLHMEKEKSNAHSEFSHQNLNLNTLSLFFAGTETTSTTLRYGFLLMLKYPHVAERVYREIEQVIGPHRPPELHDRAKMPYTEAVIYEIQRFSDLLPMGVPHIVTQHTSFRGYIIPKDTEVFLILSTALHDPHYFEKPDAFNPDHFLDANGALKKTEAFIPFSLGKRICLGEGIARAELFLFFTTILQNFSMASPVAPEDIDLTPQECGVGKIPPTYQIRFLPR
Protocol: (§1) In this study, phenacetin (100 μM), coumarin (100 μM), bupropion (100 μM), paclitaxel (60 μM), tolbutamide (200 μM), mephenytoin (100 μM), chlorzoxazone (200 μM) and nifedipine (40 μM) have been used as the probe substrates for CYP1A2, 2A6, 2B6, 2C8, 2C9, 2C19, 2E1 and 3A4, respectively.

CYP2C9 = CYP2C9 (Homo sapiens, UniProt P11712); test: Inhibition of recombinant CYP2C9 (probe tolbutamide); assay type: in vitro ADME; settings: mean ± SD of triplicate, unit not given (IC50 classes in μM)
Sequence of CYP2C9 (P11712 whole entry): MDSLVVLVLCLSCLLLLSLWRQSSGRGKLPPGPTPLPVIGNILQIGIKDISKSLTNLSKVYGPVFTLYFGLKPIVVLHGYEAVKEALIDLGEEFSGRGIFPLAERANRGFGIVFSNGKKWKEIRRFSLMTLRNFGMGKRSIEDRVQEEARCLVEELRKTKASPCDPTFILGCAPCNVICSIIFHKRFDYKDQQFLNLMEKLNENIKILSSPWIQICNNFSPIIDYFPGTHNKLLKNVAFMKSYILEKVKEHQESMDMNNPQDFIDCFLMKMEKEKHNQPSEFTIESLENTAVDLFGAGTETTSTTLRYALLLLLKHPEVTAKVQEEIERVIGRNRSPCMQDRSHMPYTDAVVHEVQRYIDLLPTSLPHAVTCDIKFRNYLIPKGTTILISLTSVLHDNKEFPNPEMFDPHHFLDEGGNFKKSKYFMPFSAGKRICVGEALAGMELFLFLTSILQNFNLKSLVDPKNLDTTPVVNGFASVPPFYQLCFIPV
Protocol: as §1

CYP2C19 = CYP2C19 (Homo sapiens, UniProt P33261); test: Inhibition of recombinant CYP2C19 (probe mephenytoin); assay type: in vitro ADME
Sequence of CYP2C19 (P33261 whole entry): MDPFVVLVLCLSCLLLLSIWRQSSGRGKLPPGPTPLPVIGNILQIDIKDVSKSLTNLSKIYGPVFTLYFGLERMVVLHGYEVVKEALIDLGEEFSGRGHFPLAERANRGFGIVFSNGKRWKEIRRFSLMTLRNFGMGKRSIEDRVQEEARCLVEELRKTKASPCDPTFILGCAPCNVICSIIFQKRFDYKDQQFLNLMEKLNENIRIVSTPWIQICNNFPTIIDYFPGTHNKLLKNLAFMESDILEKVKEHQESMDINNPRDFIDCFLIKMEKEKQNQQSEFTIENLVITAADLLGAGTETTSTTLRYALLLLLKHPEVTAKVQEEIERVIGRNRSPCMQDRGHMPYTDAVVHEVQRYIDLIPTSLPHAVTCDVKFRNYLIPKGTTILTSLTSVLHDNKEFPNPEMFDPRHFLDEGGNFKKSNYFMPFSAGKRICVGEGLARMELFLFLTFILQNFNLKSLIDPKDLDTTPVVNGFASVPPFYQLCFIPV
Protocol: as §1

CYP2E1 = CYP2E1 (Homo sapiens, UniProt P05181); test: Inhibition of recombinant CYP2E1 (probe chlorzoxazone)
Sequence of CYP2E1 (P05181 whole entry): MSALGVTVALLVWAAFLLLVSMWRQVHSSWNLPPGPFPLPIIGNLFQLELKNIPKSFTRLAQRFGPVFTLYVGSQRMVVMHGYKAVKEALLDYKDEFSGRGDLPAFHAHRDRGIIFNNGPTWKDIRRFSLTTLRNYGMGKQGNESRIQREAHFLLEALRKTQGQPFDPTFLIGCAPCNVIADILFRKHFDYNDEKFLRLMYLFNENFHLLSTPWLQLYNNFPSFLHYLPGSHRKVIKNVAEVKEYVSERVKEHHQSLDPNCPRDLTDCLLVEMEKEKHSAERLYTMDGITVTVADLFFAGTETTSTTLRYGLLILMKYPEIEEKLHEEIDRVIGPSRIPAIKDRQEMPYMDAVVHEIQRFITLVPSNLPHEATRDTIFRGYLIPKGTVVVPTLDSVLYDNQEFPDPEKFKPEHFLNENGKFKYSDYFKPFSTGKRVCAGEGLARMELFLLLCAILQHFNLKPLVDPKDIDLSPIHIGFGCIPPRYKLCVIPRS
Protocol: Phase I incubation system (100 μL) contained Tris–HCl buffer (50 mM, pH = 7.4), MgCl2 (5 mM), each CYP isozyme, specific substrates, circulating compounds and NADPH (1 mM) as prescribed previously. After incubation (37 °C, 60 min), the reaction was terminated by ice-cold acetonitrile (100 μL), following by centrifugation at 13,800g for 10 min. The supernatant (8 μL) was acquired for ultra-high-performance liquid chromatography (UHPLC) system (Waters, Manchester, UK) analysis.
After optimization of incubation conditions (Additional file 1: Fig. S1), the substrates were incubated with each CYP isozyme at different protein concentrations (0.05 mg/mL for CYP1A2 and 3A4; 0.1 mg/mL for CYP2A6, 2B6, 2C8, 2C9, 2C19 and 2E1) in the absence (control) and presence of different mixture or herbal compounds (Kang-Ai injection and samples that Kang-Ai injection was diluted 10 times; 1, 10, and 100 μM for matrine and oxymatrine; 0.1, 1, 10 and 100 μM for astragalosides and ginsenosides).
The half-inhibition concentration (IC50) values were determined by non-linear regression analysis. […] The inhibition mechanism towards corresponding CYP and UGT isoforms were further explored.
The inhibition constant (Ki) values were obtained by multiple concentrations of substrates in the absence or presence of multiple concentrations of herbal compounds as described previously. […] (1)–(3), respectively. The model with the smallest Akaike information criterion (AIC) and Schwartz information criterion (SC) values was considered as the best model, following the obtained appropriate Ki values. Model fitting and parameter estimation were performed using Graphpad Prism V5 software (SanDiego, CA).

UGT1A1 = biological target: T2, UGT1A1 (Homo sapiens, UniProt P22309); test: Inhibition of expressed UGT1A1 (probe β-estradiol); assay type: in vitro ADME
T2 sequence (P22309 26-533): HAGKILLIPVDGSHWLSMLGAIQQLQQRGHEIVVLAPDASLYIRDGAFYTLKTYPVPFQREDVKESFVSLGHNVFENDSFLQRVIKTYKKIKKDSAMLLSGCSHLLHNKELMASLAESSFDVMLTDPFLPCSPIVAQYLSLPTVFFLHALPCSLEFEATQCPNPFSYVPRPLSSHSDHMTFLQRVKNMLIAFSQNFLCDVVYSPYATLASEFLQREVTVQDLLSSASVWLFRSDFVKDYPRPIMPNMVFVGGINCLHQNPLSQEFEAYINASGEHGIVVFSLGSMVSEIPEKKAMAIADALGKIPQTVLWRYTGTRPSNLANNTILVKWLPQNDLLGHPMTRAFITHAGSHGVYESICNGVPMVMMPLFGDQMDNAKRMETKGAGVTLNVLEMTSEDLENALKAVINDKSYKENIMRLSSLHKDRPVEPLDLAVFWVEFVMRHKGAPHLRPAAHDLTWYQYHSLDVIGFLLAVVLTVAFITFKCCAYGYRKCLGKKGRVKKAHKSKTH
Protocol: After centrifugation (13,800g, 10 min), the supernatant (8 μL) was obtained for determination by UHPLC system.
Similarly, β-estradiol (60 μM), propofol (40 μM) and 4-MU (350 μM) were typically used as the substrates for UGT1A1, 1A9 and 2B7, respectively. After optimization of incubation conditions (Additional file 1: Fig. S2), the protein concentrations for UGT1A1, 1A9, and 2B7 were 0.125, 0.05, and 0.05 mg/mL, respectively.

[2] = recombinant isozyme, read-out: IC50 towards CYP2B6
[3] = recombinant isozyme, read-out: IC50 towards CYP2C9
[4] = recombinant isozyme, mean ± SD of triplicate, unit not given (IC50 classes in μM), read-out: IC50 towards CYP2C19
[5] = recombinant isozyme, mean ± SD of triplicate, unit not given (IC50 classes in μM), read-out: IC50 towards UGT1A1

Structure (SMILES) | fraction unbound at 24 h ([1]; rat plasma, equilibrium dialysis 24 h, 37 °C, 2 μmol/L alkaloids, 4 μmol/L saponins, read-out: fu-plasma (unbound fraction)) | IC50 (CYP2B6; [2]) [µM] | IC50 (CYP2C9; [3]) [µM] | IC50 (CYP2C19; [4]) [µM] | IC50 (CYP2E1) [µM] | inhibition type (smallest AIC and SC) (UGT1A1; UGT1A1) | Ki (UGT1A1; UGT1A1, competitive model) [µM] | Ki (UGT1A1; UGT1A1, mixed-type model) [µM] | α (UGT1A1; UGT1A1, mixed-type model) | Ki (UGT1A1; UGT1A1, noncompetitive model) [µM] | Cmax/Ki ([I]/Ki) (UGT1A1; UGT1A1, selected model, rat plasma Cmax) | IC50 (UGT1A1; [5]) [µM] | IC50 (UGT1A1; β-estradiol 60 μM, read-out: IC50 against UGT1A1) [µM] | fraction unbound at 24 h ([1]; rat, plasma) | IC50 (CYP2B6; IC50 towards CYP2B6, recombinant isozyme) [µM] | IC50 (CYP2C9; IC50 towards CYP2C9, recombinant isozyme) [µM] | IC50 (CYP2C19) [µM] | IC50 (UGT1A1; IC50 towards UGT1A1, recombinant isozyme, mean ± SD of triplicate, unit not given (IC50 classes in μM)) [µM]
CC(C)=CCC[C@](C)(O[C@@H]1O[C@H](CO)[C@@H](O)[C@H](O)[C@H]1O)[C@H]1CC[C@]2(C)[C@@H]1[C@H](O)C[C@@H]1[C@@]3(C)CC[C@H](O)C(C)(C)[C@@H]3[C@@H](O[C@@H]3O[C@H](CO)[C@@H](O)[C@H](O)[C@H]3O)C[C@]12C [Compound C6, Ginsenoside Rg1] | 0.863 ± 0.0732 | > 100 | > 100 | > 100 | > 100 | competitive inhibition | 141 ± 10.5 | 147 ± 29.9 | 8.3 ± 37.2 | 187 ± 12.7 | 0.01 | 92.2 ± 40 | 92.2 | – | – | – | – | –
O=C1CCC[C@@H]2[C@H]3CCC[N+]4([O-])CCC[C@@H](CN12)[C@@H]34 (stereo partly shown) [Compound A3, Oxymatrine] | – | – | – | – | > 100 | – | – | – | – | – | – | – | – | 0.932 ± 0.0652 | > 100 | > 100 | > 100 | > 100
CC(C)=CCC[C@](C)(O)[C@H]1CC[C@]2(C)[C@@H]1[C@H](O)C[C@@H]1[C@@]3(C)CC[C@H](O)C(C)(C)[C@@H]3[C@@H](O[C@@H]3O[C@H](CO)[C@@H](O)[C@H](O)[C@H]3O[C@@H]3O[C@H](CO)[C@@H](O)[C@H](O)[C@H]3O)C[C@]12C [Compound C7, Ginsenoside Rf] | – | > 100 | > 100 | > 100 | > 100 | – | – | – | – | – | – | > 100 | – | 0.602 ± 0.0701 | – | – | – | –
